Measured values: patent publication US20040029908A1, “Tricyclo compounds, a process for their production and a pharmaceutical composition containing the same” (FUJISAWA PHARMACEUTICAL CO., LTD., priority 1984, published 2004)
Values after ≈ are worked out from the molar mass of the structure shown.

Key:
[1] = system: Interleukin-2 (IL-2) Production; assay: Inhibition of Interleukin-2 (IL-2) Production in MLR, CTLL-2 bioassay; type: cell-based, mouse; conditions: for IL-2: MLR supernatant at 48 hours
Experimental: The mixed lymphocyte reaction (MILR) was performed in microtiter plates, with each well containing 5 ×10^5 C57BL/6 responder cells (H-2^b), 5 ×10^5 mitomycin C treated (25 μg/ml mitomycin C at 37° C. for 30 minutes and washed three times pith RPMI 1640 medium) BALB/C stimulator cells ([…]) in 0.2 ml RPMI 1640 medium supplemented with 10% fetal calf serum, 2mM sodium hydrogen carbonate, penicillin 20 (50 unites/ml) and streptomycin (50 μg/ml) . The cells were incubated at 37° C. in humidified atmosphere of 5% carbon dioxide and 95% of air for 48 hours and the supernatant was collected. The FR-900506 substance was dissolved in ethanol and further diluted in RPMI 1640 medium and added to the cultures to give final concentrations of 0.1 μg/ml or less.
The IL-2 activity was measured according to the method described by S. Gillis et. al. [Journal of Inununology, Vol. 120, page 2027, (1978)]. The IL-2 dependent CTLL-2 cell line was used to quantitate IL-2 activity. Cells (5 ×10^3/well) were cultured at 37° C. for 24 hours with various dilutions of IL-2 containing supernatant from MLR. The uptake of ^3H-thymidine was measured by pulsing cultures with 0.5 uCi of 1T-thymidine for 6 hours. The unit value was calculated by dilution analysis of test sample and was compared with a laboratory standard preparation in which 100 units are equivalent to the amount of IL-2 necessary to achieve 50% proliferation of CTLL-2 cells.

[2] = system: Antibody formation to sheep erythrocytes (SRBC) in BDF1 mice; assay: Antibody Formation in mice (haemagglutination test); type: in vivo, mouse
Experimental: Male BDF1 mice 6 to 8 weeks of age were used for this test. The mice were immunized on day 0 with […] sheep erythrocytes (SRBC) intraperitoneally. Serum aggulutinin titers were determined for each individual animal with sedimentation of erythrocytes by serial two fold dilutions. The titers are expressed as -log2 The FR-900506 substance was administered orally for 5 days from one day before immunization to day 3.

[3] = system: Type II Collagen-Induced-Arthritis in female Lewis rats; assay: Type II Collagen-Induced-Arthritis in Rats; type: in vivo, rat; conditions: observation period of 3 weeks
Experimental: Collagen was dissolved in cold 0.01 M acetic acid at a concentration of 2 mg/ml. The solution was emulsified in an equal volume of incomplete Freund's adjuvant. A total volume of 0.5 ml of the cold emulsion was injected intradermally at several sites on the back and one or two sites into the tail of female Lewis rats. The FR-900506 substance was dissolved in olive oil and administered orally. Control rats immunized with same amount of type II collagen received oral administrations of olive oil alone. Incidences of the arthritis were observed.

[4] = system: mouse MLR (C57BL/6 responder cells, mitomycin C treated BALB/C stimulator cells); assay: Suppression of in vitro Mixed Lymphocyte Reaction (MLR), 3H-thymidine uptake; type: cell-based
Experimental: The MLR test was performed in microtiter plates, with each well containing 5 ×10^5 C57BL/6 responder cells (H-2^b ), 5 ×10^5 mitomycin C treated (25μg/ml mitomycin C at 37° C. for 30 minutes and washed three times with RPMI 1640 medium) BALB/C stimulator cells (H-2^d) in 0.2 ml RPMI 1640 medium supplemented with 10% fetal calf serum, 2mM sodium hydrogen carbonate, penicillin (50 unit/ml) and streptomycin (50 μg/ml) . The cells were incubated at 37 ° C. in humidified atmosphere of 5% carbon dioxide and 95% of air for 68 hours and pulsed with ^3H-thymidine (0.5 μCi) 4 hours before the cells were collected. The object compound of this invention was dissolved in ethanol and further diluted in RPMI 1640 medium and added to the cultures to give final concentrations of 0.1 μg/ml or less.

SMILES: C=CCC1/C=C(\C)CC(C)CC(OC)C2OC(O)(C(=O)C(=O)N3CCCCC3C(=O)OC(/C(C)=C/C3CCC(O)C(OC)C3)C(C)C(O)CC1=O)C(C)CC2OC (stereo not shown) [FR-900506, 17-Allyl-1,14-dihydroxy-12-[2-(4-hydroxy-3-methoxycyclohexyl)-1-methyvinyl]-23-25-dimethoxy-13,19,21,27-tetramethyl-11,28-dioxa-4-azatricyclo[22.3.1.0^4,9]octacos-18-ene-2,3,10,16-tetraone]
- Production of IL-2 from mouse MLR (in words) [1]: inhibited the production of Il-2 from mouse MLR
- IL-2 ([1]; 0.1 nM): 25.0 units/ml
- IL-2 ([1]; 0.3 nM): 0.2 units/ml
- IL-2 ([1]; 1 nM): 0 units/ml
- IL-2 ([1]; 10 nM): 0 units/ml
- inhibition at 0.0001 µM ([1]; Mus musculus, CTLL-2, 0.1 nM): 34.4%
- inhibition at 0.0003 µM ([1]; Mus musculus, CTLL-2, 0.3 nM): 99.5%
- inhibition at 0.001 µM ([1]; Mus musculus, CTLL-2, 1 nM): 100%
- inhibition at 0.01 µM ([1]; Mus musculus, CTLL-2, 10 nM): 100%
- Haemagglutination Mean log2 titer ± SE ([2]; 10 mg/kg orally for 5 days): 7.6 ± 0.4
- Haemagglutination Mean log2 titer ± SE ([2]; 32 mg/kg orally for 5 days): 6.0 ± 0.45
- Haemagglutination Mean log2 titer ± SE ([2]; 100 mg/kg orally for 5 days): 4.4 ± 0.75
- ED50 ([2]; Erythrocyte, po, orally for 5 days from one day before immunization to day 3): 16.9 mg/kg
- Incidence of Arthritis ([3]; 3.2 mg/kg per day orally for 14 days): 0/5
- Suppression of arthritis induction (in words) ([3]; daily treatment for 14 days): complete suppression of arthritis induction
- Radioactivities (mean C.P.M. ± S.E.) ([4]; 0.078 ng/ml): 7189 ± 365 C.P.M.
- Suppression (%) ([4]; 0.078 ng/ml): 27.6%
- Radioactivities (mean C.P.M. ± S.E.) ([4]; 0.156 ng/ml): 5490 ± 431 C.P.M.
- Suppression (%) ([4]; 0.156 ng/ml): 44.7%
- Radioactivities (mean C.P.M. ± S.E.) ([4]; 0.313 ng/ml): 3880 ± 222 C.P.M.
- Suppression (%) ([4]; 0.313 ng/ml): 60.9%
- Radioactivities (mean C.P.M. ± S.E.) ([4]; 0.625 ng/ml): 614 ± 57 C.P.M.
- Suppression (%) ([4]; 0.625 ng/ml): 93.8%
- Radioactivities (mean C.P.M. ± S.E.) ([4]; 1.25 ng/ml): 168 ± 23 C.P.M.
- Suppression (%) ([4]; 1.25 ng/ml): 98.3%
- Radioactivities (mean C.P.M. ± S.E.) ([4]; 2.5 ng/ml): 54 ± 4 C.P.M.
- Suppression (%) ([4]; 2.5 ng/ml): 99.5%
- IC50 ([4]; Lymphocyte, mouse MLR, 68 hours, 3H-thymidine): 0.26 ng/mL (≈ 0.323 nM)
